Results published in PMC5674125, “Towards eco-friendly crop protection: natural deep eutectic solvents and defensive secondary metabolites” (Phytochemistry Reviews, 2017).
Read-outs that look alike come from different tables or passages of the source. Values belong to the compound of their own block, whether it stands above or below them.

Columns and labels:
Sitobion avanae [1] = system: Sitobion avanae; design: method as in Leszczynski et al. (1995); conditions: ref Leszczynski et al. (1995), cited from earlier work
Acanthoscelides obtectus = system: Acanthoscelides obtectus; design: method as in Regnault-Roger et al. (2004); conditions: adults, ref Regnault-Roger et al. (2004), cited from earlier work
Helicoverpa armigera [2] = system: Helicoverpa armigera; design: method as in Joshi et al. (2014); conditions: ref Joshi et al. (2014), cited from earlier work
Helicoverpa zea [3] = system: Helicoverpa zea; design: method as in Summers and Felton (1994); conditions: 4 mM, ref Summers and Felton (1994), cited from earlier work
Choristoneura fumiferana = system: Choristoneura fumiferana; design: method as in Grant and Langevin (2002); conditions: ref Grant and Langevin (2002), cited from earlier work
Dalbulus maidis = system: Dalbulus maidis; design: method as in Dowd and Vega (1996); conditions: adults, 400 ppm, in vitro bioassay; ref Dowd and Vega (1996); cited from earlier work
Sitobion avanae [4] = system: Sitobion avanae; design: method as in Chrzanowski et al. (2012); conditions: ref Chrzanowski et al. (2012); cited from earlier work
Sitodiplosis mosellana = system: Sitodiplosis mosellana; design: method as in Ding et al. (2000); conditions: constitutive levels exceeding 0.35 µg/g fresh weight (1.57 µg/g dry weight); ref Ding et al. (2000); cited from earlier work
Mamestra configurata = system: Mamestra configurata; design: method as in Onyilagha et al. (2004); conditions: applied at concentration > endogenous levels, 0.05–0.45 µmol per leaf disk, choice feeding assay; ref Onyilagha et al. (2004); cited from earlier work
Liriomyza trifolii = system: Liriomyza trifolii; design: method as in Kashiwagi et al. (2005); conditions: 4.90 µg/cm^2; ref Kashiwagi et al. (2005); cited from earlier work
[5] = system: Frankliniella occidentalis; design: method as in Leiss et al. (2013); conditions: 25% of natural plant concentrations (0.53 mg/g); ref Leiss et al. (2013); cited from earlier work
Spodoptera exigua = system: Spodoptera exigua; design: method as in Cipollini et al. (2008); conditions: individual compound in diet plugs; ref Cipollini et al. (2008); cited from earlier work
Acyrthosiphon pisum = system: Acyrthosiphon pisum; design: method as in Goławska and Łukasik (2012); conditions: 100 µg cm^−3; ref Goławska and Łukasik (2012); cited from earlier work
[6] = Solubility in natural deep eutectic solvents (saturated solutions, UV-VIS); type: physicochemical
Description: As an extension of these studies, we have investigated the solubility of six insecticidal metabolites in a variety of NADES. The solvent selection framework consisted of the following steps: • Preliminary solvent screening: a pre-selected set of 20 NADES was used as a starting point to identify and rank potential NADES candidates (Table 3). Selection constraints were imposed on important properties such as viscosity and stability.
• Secondary screening: solubility tests were performed to determine the best solvent for each of the metabolites. Saturated solutions, generated by adding an excess amount of each compound to different NADES, were kept under constant stirring (1100 rpm) for 24 h at 50 °C. The 20 candidates were ranked in decreasing order of solvent power. • Solubility verification: For the verification of solubilities, samples were centrifuged for 5 min at 2000 rpm and subsequently diluted suitably with methanol for spectrophotometric analysis (UV-1800 UV–VIS spectrophotometer, Shimadzu Europe GmbH, Duisburg, Germany).

Helicoverpa zea [7] = system: Helicoverpa zea; design: method as in Simmonds (2003); conditions: 10^−3 M; ref Simmonds (2003); cited from earlier work
[8] = cited from earlier work
Helicoverpa armigera [9] = system: Helicoverpa armigera; design: method as in Simmonds (2003); conditions: 10^−3 M; ref Simmonds (2003); cited from earlier work
Spodoptera litura [10] = conditions: 0.7–0.8 µg/ml; ref Mallikarjuna et al. (2004); cited from earlier work
Helicoverpa armigera [11] = system: Helicoverpa armigera; design: method as in Jadhav et al. (2012); conditions: 1 µg/ml; ref Jadhav et al. (2012); cited from earlier work
Spodoptera litura [12] = system: Spodoptera litura; design: method as in Jadhav et al. (2012); conditions: 1 µg/ml; ref Jadhav et al. (2012); cited from earlier work
Lymantria dispar = system: Lymantria dispar; design: method as in Beninger and Abou-Zaid (1997); conditions: 0.05%, day 15; ref Beninger and Abou-Zaid (1997); cited from earlier work
Anticarsia gemmatalis = system: Anticarsia gemmatalis; design: method as in Salvador et al. (2010); conditions: 0.65% (mg/ml); ref Salvador et al. (2010); cited from earlier work
Phyllotreta cruciferae = system: Phyllotreta cruciferae; design: method as in Onyilagha et al. (2012); conditions: 1 month old flea beetle, binary feeding bioassay; ref Onyilagha et al. (2012); cited from earlier work
Plutella xylostella = system: Plutella xylostella; design: method as in Peterson et al. (2003); conditions: ref Peterson et al. (2003); cited from earlier work
Anopheles arabiensis = system: Anopheles arabiensis; design: method as in Narayanaswamy et al. (2014); conditions: 100 µg/ml; ref Narayanaswamy et al. (2014); cited from earlier work
Spilarctia obliqua = system: Spilarctia obliqua; design: method as in Tripathi et al. (2011); conditions: 250 µg/g, compared with azadirachtin; ref Tripathi et al. (2011); cited from earlier work
Coptotermes formosanus = system: Coptotermes formosanus; design: method as in Adfa et al. (2010); conditions: 5 µmol; ref Adfa et al. (2010); cited from earlier work
Zygogramma exclamationis = system: Zygogramma exclamationis; design: method as in Olson and Roseland (1991); conditions: topical application of 100 µg/ml; ref Olson and Roseland (1991); cited from earlier work
Delia radicum = system: Delia radicum; design: method as in Jones et al. (1988); conditions: 10 mM in buffered solution; ref Jones et al. (1988); cited from earlier work
Etiella zinckenella = system: Etiella zinckenella; design: method as in Hattori et al. (1992); conditions: 0.5 mg; ref Hattori et al. (1992); cited from earlier work

Compound: O=C(O)/C=C/c1ccc(O)c(O)c1 [Caffeic acid]
Phloem sap ingestion (Sitobion avanae [1]; 2.5 mM): Reduction of phloem sap ingestion at 2.5 mM
Knockdown effect (mobility and mortality) (Acanthoscelides obtectus; in vitro bioassay): Knockdown effect: reduced mobility and increased mortality in adults (in vitro bioassay)
Body weight and survival (Helicoverpa armigera [2]; range of 50–200 ppm): Body weight and survival significantly reduced
Mode of action (Helicoverpa armigera [2]): Protease inhibitor
Prooxidant effect on midgut proteins (Helicoverpa zea [3]; chronic exposure): oxidative stress in midgut proteins
Development rate, survivorship and pupal weight (Helicoverpa zea [3]): Development rate, survivorship and pupal weight negatively influenced

Compound: COc1cc(/C=C/C(=O)O)ccc1O [Ferulic acid]
Oviposition deterrence (Choristoneura fumiferana; 7.8 nmol/cm^2, dual choice bioassay): Oviposition deterrent 7.8 nmol/cm^2 (dual choice bioassay)
Sieve element salvation (Sitobion avanae [1]; 2.5 mM): Reduced sieve element salvation at 2.5 mM
Antifeedant activity (Dalbulus maidis): Antifeedant activity in adults at 400 ppm (in vitro bioassay)
Reproductive period and daily fecundity (Sitobion avanae [4]): Prolonged reproductive period and reduced daily fecundity
Knockdown effect (mobility and mortality) (Acanthoscelides obtectus; day 8, in vitro bioassay): Knockdown effect: reduced mobility and increased mortality of adults at day 8 (in vitro bioassay)
Mortality of newly hatched larvae (Sitodiplosis mosellana): Constitutive levels exceeding 0.35 µg/g fresh weight (1.57 µg/g dry weight) increased mortality of newly hatched larvae

Compound: O=c1c(O[C@@H]2O[C@H](CO)[C@@H](O)[C@H](O)[C@H]2O)c(-c2ccc(O)cc2)oc2cc(O[C@@H]3O[C@H](CO)[C@@H](O)[C@H](O)[C@H]3O)cc(O)c12 [Kaempferol-3,7-diglucoside]
Feeding deterrence (Mamestra configurata): Kaempferol-3,7-diglucoside acts as feeding deterrent when applied at concentration > endogenous levels; 0.05–0.45 µmol per leaf disk (choice feeding assay)

Compound: O=c1cc(-c2ccc(O)c(O)c2)oc2cc(O[C@@H]3O[C@H](CO)[C@@H](O)[C@H](O)[C@H]3O[C@@H]3OCC(O)(CO)[C@H]3O)cc(O)c12 (stereo partly drawn) [Luteolin 7-O-β -D-apiofranosyl-(1→2)-β-D-glucopyranoside]
Ovipositional deterrence (Liriomyza trifolii): Ovipositional deterrent at 4.90 µg/cm^2

Compound: O=c1cc(-c2ccc(O)c(O)c2)oc2cc(O[C@@H]3O[C@H](CO)[C@@H](O)[C@H](O)[C@H]3O)cc(O)c12 [Luteolin-7-glucoside]
Knockdown effect (mobility and mortality) (Acanthoscelides obtectus; in vitro bioassay): Toxin: knockdown effect: reduced mobility and increased mortality

Solubility ([6]; 1,2-propanediol: choline chloride: water (1:1:1), water 7.71%, 24 h at 50 °C, mean ± SD, n = 3): 13.08 ± 0.86 mg/g
Solubility enhancement with NADES compared to aqueous solubility ([6]; NADES of Table 4 versus water (Table 2)): > 95 fold
Compound: O=c1cc(-c2ccc(O)c(O)c2)oc2cc(O)cc(O)c12 [Luteolin]
Mortality of first instar larvae [5]: Significant increase in mortality of first instar larvae at 25% of natural plant concentrations (0.53 mg/g)
Anti-herbivory activity (Spodoptera exigua): no anti-herbivory activity was observed
Feeding (Spodoptera exigua): marginally stimulating feeding
Probing and feeding deterrence (Acyrthosiphon pisum): Probing and feeding deterrent at 100 µg cm^−3

Compound: C[C@@H]1O[C@@H](OC[C@H]2O[C@@H](Oc3c(-c4ccc(O)c(O)c4)oc4cc(O)cc(O)c4c3=O)[C@H](O)[C@@H](O)[C@@H]2O)[C@H](O)[C@H](O)[C@H]1O [Rutin]
Feeding deterrence (Helicoverpa zea [7]): Feeding deterrent at 10^−3 M
Solubility ([6]; 1,2-propanediol: choline chloride: water (1:1:3), water 20.04%, 24 h at 50 °C, mean ± SD, n = 3): 18.46 ± 0.67 mg/g
Solubility increase compared to water ([6]; PCH (1:1:3) versus water (Tables 2, 4)): fivefold
Solubility in NADES diluted with water ([8]; diluted with 5–10% of water, ref Dai et al. (2013)): higher solubility
Solubility in NADES compared to aqueous solubility ([8]; ref Dai et al. (2013, 2015)): significantly increased
Feeding deterrence (Helicoverpa armigera [9]): Feeding deterrent at 10^−3 M
Development (Spodoptera litura [10]): Developmental retardation
Larval mortality (Spodoptera litura [10]): > 60%
Feeding and larval growth (Helicoverpa armigera [11]): Cessation of feeding inhibits larval growth (1 µg/ml)
Knockdown effect (mobility and mortality) (Acanthoscelides obtectus; in vitro bioassay): Knockdown effect in bioassay: reduced mobility and increased mortality of adults
Larval development, pupal mortality, adult malformation (Spodoptera litura [12]): Larval development arrested, increased pupal mortality and malformation of adults at 1 µg/ml
Larval weight reduction (Lymantria dispar): Larval growth inhibitor. Larval weight reduced by 45% at 0.05% at day 15
Larval development, amount of food consumed, pupal weight (Anticarsia gemmatalis): Larval development, amount of food consumed, and pupal weight were negatively influenced at 0.65% (mg/ml)
Feeding deterrence (Phyllotreta cruciferae): Feeding deterrent of 1 month old flea beetle (binary feeding bioassay)

Compound: COc1cc2ccc(=O)oc2cc1O [Scopoletin]
Antibiosis (growth inhibitor), concentration in diet (Plutella xylostella): > 2500 µg/g diet
LD50 (Plutella xylostella): ~8300 µg/mL
Repellent activity (Anopheles arabiensis): Repellent activity at 100 µg/ml
Phloem sap ingestion (Sitobion avanae [1]; 2.5 mM): Reduced ingestion of phloem sap at 2.5 mM
Antifeedant and growth inhibitory activity (Spilarctia obliqua): Antifeedant and growth inhibitor. At 250 µg/g deterrence and growth inhibition was similar to that of azadirachtin
Termicidal and antifeedant effects (Coptotermes formosanus): Termicidal and antifeedant effects at 5 µmol
Feeding deterrence (preference) (Zygogramma exclamationis): Phytoalexin: feeding deterrent. Topical application of 100 µg/ml reduces preference

Compound: COc1cc(/C=C/C(=O)O)cc(OC)c1O [Sinapic acid]
Mortality of first instar larvae [5]: Significant increase in mortality of first instar larvae at 25% of natural plant concentrations (0.53 mg/g)
Oviposition deterrence (Choristoneura fumiferana; 78.6 nmol/cm^2): Oviposition deterrent at 78.6 nmol/cm^2
Solubility [6]: 21.59 ± 0.24 mg/g
Solubility enhancement with NADES compared to aqueous solubility [6]: > 34 fold
Phloem sap ingestion (Sitobion avanae [1]; 2.5 mM): Reduced ingestion of phloem sap at 2.5 mM
Reduction of number of eggs (oviposition deterrent) (Delia radicum): Oviposition deterrent; 10 mM in buffered solution reduced number of eggs by 60–70%

Compound: O=C(O)C=Cc1ccc(O)cc1 [p-Coumaric acid]
Phloem sap ingestion (Sitobion avanae [1]; concentration not given): Reduction ingestion of phloem sap
Antifeedant activity (Dalbulus maidis): Antifeedant activity in adults at 400 ppm (in vitro bioassay)
Oviposition deterrence (Etiella zinckenella): Oviposition deterrent at 0.5 mg
